Data: patent US20230136297A1, “Methods Of Treating Fabry Disease In Patients Having A Mutation In The GLA Gene” (Amicus Therapeutics, Inc., priority 2020, published 2023)
Numbering of substitutions follows the chain as printed.

What was measured:
Experiment in all cases: α-Gal A activity in lysates of transfected HEK-293 cells ± migalastat (HEK assay)
Type in all cases: cell-based
[1] = biological target: T1, α-Gal A mutant form I303V (Homo sapiens, UniProt P06280, I303V)
T1 construct: expressed in transfected cells; host or cells: HEK-293
T1 sequence (P06280 32-429 I303V): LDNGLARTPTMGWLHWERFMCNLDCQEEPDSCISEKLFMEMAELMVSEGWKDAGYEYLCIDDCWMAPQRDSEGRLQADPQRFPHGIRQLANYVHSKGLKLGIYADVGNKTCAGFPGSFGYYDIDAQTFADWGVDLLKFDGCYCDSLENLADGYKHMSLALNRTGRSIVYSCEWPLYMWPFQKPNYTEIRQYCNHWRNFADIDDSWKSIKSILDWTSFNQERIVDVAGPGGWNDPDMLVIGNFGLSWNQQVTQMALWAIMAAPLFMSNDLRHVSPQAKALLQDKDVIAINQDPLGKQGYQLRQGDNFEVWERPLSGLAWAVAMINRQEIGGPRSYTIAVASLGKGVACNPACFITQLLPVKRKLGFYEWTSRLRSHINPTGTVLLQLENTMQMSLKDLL
Method in brief: (§1)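 Activity is reported as nmol of free 4-MU released per mg protein per hour (nmol/mg/hr).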

[2] = biological target: T2, α-Gal A mutant form G375A (Homo sapiens, UniProt P06280, G375A)
T2 construct: expressed in transfected cells; host or cells: HEK-293
T2 sequence (P06280 32-429 G375A): T1 sequence (P06280 32-429 I303V) with V272I, G344A
Method in brief: as §1

[3] = biological target: T3, α-Gal A mutant form S276T (Homo sapiens, UniProt P06280, S276T)
T3 construct: expressed in transfected cells; host or cells: HEK-293
T3 sequence (P06280 32-429 S276T): T1 sequence (P06280 32-429 I303V) with S245T, V272I
Method in brief: as §1

[4] = biological target: T4, α-Gal A mutant form A257T (Homo sapiens, UniProt P06280, A257T)
T4 construct: expressed in transfected cells; host or cells: HEK-293
T4 sequence (P06280 32-429 A257T): T1 sequence (P06280 32-429 I303V) with A226T, V272I
Method in brief: as §1

[5] = biological target: T5, α-Gal A mutant form V124G (Homo sapiens, UniProt P06280, V124G)
T5 construct: expressed in transfected cells; host or cells: HEK-293
T5 sequence (P06280 32-429 V124G): T1 sequence (P06280 32-429 I303V) with V93G, V272I
Method in brief: as §1

[6] = 10 μM migalastat minus baseline
[7] = HEK-293 lysates, 10 μM migalastat 5 days, mean ± SEM

Absolute increase (% WT) [1, 6]: 35 % WT
Relative increase ([1]; 10 μM migalastat ÷ baseline): 1.91
10 μM migalastat α-Gal A activity [1, 7]: 28958 ± 3153 nmol/mg/h
10 μM migalastat α-Gal A activity (% WT) [1, 7]: 73.2 ± 8.8 % WT
Absolute increase (% WT) [2, 6]: 12 % WT
Relative increase ([2]; 10 μM migalastat ÷ baseline): 1.23
10 μM migalastat α-Gal A activity [2, 7]: 24212 ± 1520 nmol/mg/h
10 μM migalastat α-Gal A activity (% WT) [2, 7]: 66.8 ± 2.4 % WT
Absolute increase (% WT) [3, 6]: 8.3 % WT
Relative increase ([3]; 10 μM migalastat ÷ baseline): 7.5
10 μM migalastat α-Gal A activity [3, 7]: 4104 ± 439 nmol/mg/h
10 μM migalastat α-Gal A activity (% WT) [3, 7]: 9.6 ± 0.9 % WT
Absolute increase (% WT) [4, 6]: 40.6 % WT
Relative increase ([4]; 10 μM migalastat ÷ baseline): 2.56
10 μM migalastat α-Gal A activity [4, 7]: 18990 ± 1196 nmol/mg/h
10 μM migalastat α-Gal A activity (% WT) [4, 7]: 66.2 ± 4.1 % WT
Absolute increase (% WT) [5, 6]: 6.4 % WT
10 μM migalastat α-Gal A activity [5, 7]: 4316 ± 432 nmol/mg/h
10 μM migalastat α-Gal A activity (% WT) [5, 7]: 10.7 ± 1^ % WT
Compound: OC[C@H]1NC[C@H](O)[C@@H](O)[C@H]1O [migalastat, (2R,3S,4R,5S)-2-(hydroxymethyl) piperdine-3,4,5-triol]
